Assay results published in patent US5700640A, “Inducers of gamma globin gene expression and screening assays therefor” (priority 1994, dated 1997).

Assays:
[1] = tested on: gamma globin gene expression (gamma3'PE reporter) in K562 cells; experiment: gamma globin promoter-luciferase reporter assay in stably transfected gamma3'PE K562 cells
Protocol: The gamma globin 5' promoter and 3' enhancer fragments, alone or in combination with each other or another fragment, were inserted into restriction endonuclease sites flanking the coding sequences of the luciferase gene in pGL2 using standard recombinant DNA techniques (pGL2 was obtained commercially from Promega Biotech). Constructs were prepared which contained: 1) the gamma globin promoter alone upstream of the luciferase gene (gamma); 2) the gamma globin promoter upstream of the luciferase gene and the gamma globin 3' enhancer downstream of the luciferase gene (gamma3'PE); 3) the gamma globin promoter upstream of the luciferase gene and the SV40 enhancer downstream of the luciferase gene (gammaSV40); 4) the beta globin promoter upstream of the luciferase gene and the gamma globin 3' enhancer downstream of the luciferase gene Coeta3'PE); and 5) hypersensitive sites 2 and 3 G-IS2 and HS3) of the 5' globin enhancer upstream of the gamma globin promoter upstream of the luciferase gene and the gamma globin 3' enhancer downstream of the luciferase gene (HS2/3gamma3'PE). These constructs are illustrated schematically in FIG. 2.
The gamma globin-luciferase reporter gene constructs described in Example 1 were introduced into a human erythroleukemia cell line K562 (ATCC No. CCL 243). To create stable transfectants, K562 cells (5×10^6) in log phase were suspended in 400 μl HEPES buffered saline and then combined with 33.5 μg salmon testes DNA (Sigma), 1.5 μg neo plasmid (pPMT) and 15 μg reporter gene plasmid supercoiled that had been co-precipitated and suspended in 400 μl HEPES buffered saline. The DNA-cell mixture was electroporated at settings of 0.25 KV and 960 μFD using a Gene Pulser (BioRad Inc.) electropotation apparatus.
The cells were allowed to recover 10 minutes at room temperature, then added to 10 ml complete RPMI cell culture medium. Cell debris was removed by centrifugation at 1000 rpm for 5 minutes. The live cells were suspended in 20 ml RPMI in 2×10 cm dishes and grown in non-selective media for 48 hours. Stably transfected cells were then selected by growing the cells in media containing 300 μg/ml G418 for about one month. During this time the cells were split 1:5 every 3 to 4 days. Once the lines were stable, they were carried in 100 μg/ml G418. The cell lines were designated according to the reporter gene construct that was introduced into the cell line. For example, a cell line carrying the gamma'3PE construct was designated gamma3'PE. Transient transfections were carried out similarly except that the neo plasmid was omitted from the electroporation solution and the cells were not subjected to G418 selection.
K562 host cells carrying gamma globin-reporter gene constructs were used to lo screen compounds for their ability to induce globin gene expression, as measured by increased reporter gene activity in the host cells upon treatment with the compound. The host cells described in Example 2 were grown to log phase cells and plated at a density of 2×10^5 /ml in RPMI media without G418. After 24 hours, compounds to be assayed for their ability to induce globin gene expression were dissolved in RPMI media at a concentration of 5 mM and added to the K562 stable transfectants. Mock-treated stably transfected K562 cells served as a negative control. The cells were incubated with the test compounds at 37° C. for various time periods (e.g., 24, 50, 74 and 122 hours).
After induction with the test compounds, the cells were harvested, lysed and assayed for reporter gene activity (i.e., luciferase activity) as follows. Cells were collected, washed once with PBS and lysed in 200 μl Cell Culture Lysis 1 X Reagent (Promega Luciferase Assay System) consisting of 25 mM Tris-Phosphate pH 7.8; 2 mM DTT; 2 mM 1,2-diaminocyclohexane-N,N,N,N-tetraacetic acid; 10% glycerol; 1% Triton X-100.

[2] = tested on: neoplastic and non-neoplastic cells; conditions: Newmark et al. 1994; cited from earlier work
GATA-1 mRNA [3] = experiment: Northern hybridization of GATA-1 mRNA in treated K562 cells; type: cell-based, human
Protocol: (§1) Total RNA was prepared by the method of McDonald as described in Sambrook et al., (1989) Molecular Cloning: A Laboratory Manual, 2nd Edition, Cold Spring Harbor Laboratory Press. 10 μg total cellular RNA was electrophoresed through agarose gels containing 3.3% formaldehyde. The electrophoresed RNA was then transferred to nitrocellulose filters by standard methods. Each sample was hybridized to specific probes for gamma globin mRNA, mRNA encoding the erythroid specific transcription factor GATA-1 and 28S ribosomal RNA (which was used for standardization). The gamma globin and GATA-1 probes were cDNA probes, which were labeled with ^32 p by random priming reactions (Promega Biotech Inc.). The 28S ribosomal RNA probe was an oligonucleotide having the sequence 5' […] 3' (SEQ ID NO: 3), which was labeled by 5' end labeling using T4 polynucleotide kinase (New England Biolabs). Nucleotide probes were hybridized to the RNA nitrocellulose filters according to standard techniques. After hybridization, radioactive signals on the nitrocellulose filters were directly quantified using a BioRad GS-250 Molecular Imager. mRNA hybridization intensities were normalized to the amount of 28S ribosomal RNA present for each sample.

gamma globin mRNA = experiment: Northern hybridization of gamma globin mRNA in treated K562 cells; type: cell-based, human
Protocol: as §1

GATA-1 mRNA [4] = experiment: GATA-1 mRNA level (Northern) with BA and/or cycloheximide in gamma3'PE cells; type: cell-based, human; conditions: BA 5 mM, 5 hr
Protocol: To determine if BA exerts its inductive effects by acting directly on pre-existing proteins in the cells, the effect of the protein synthesis inhibitor cycloheximide (CHX) on BA-induced expression of RNA was analyzed. In these experiments, gamma3'PE cells were incubated with 150 μg/ml CHX for 2 hr prior to addition of BA (5 mM). Control cells were incubated with either CHX or BA alone or were mock incubated. Cells were harvested 5 hr later for preparation of total RNA. RNA samples were electrophoresed, transferred to nitrocellulose and hybridized to a ^32 P-labeled luciferase cDNA probe as described in Example 4. The radioactive signals on the filter were quantitated using a BioRad GS-250 Molecular Imager and mRNA levels were normalized to values obtained for mock treated samples. The results are presented graphically in FIG. 12, Panel A. BA treatment alone increased gamma globin-regulated luciferase mRNA by approximately 6 fold.
The results, normalized to mock treated samples, are depicted graphically in FIG. 12, Panel B. In contrast to luciferase mRNA which was induced by BA treatment, the level of GATA-1 RNA decreases about 3 fold in response to BA treatment.

[5] = normalized to 28S ribosomal RNA, K562 cells, 5 mM, 96 hours

Structure (SMILES): CCCC(=O)O [BA, butyric acid]
- induction of gamma-globin reporter gene expression over time course (FIG. 3) ([1]; 5 mM, 24-122 hr, normalized to viable cells): initially a strong inducer of gamma-globin gene expression
- level of induction by the conclusion of the time course (FIG. 3) ([1]; 5 mM, normalized to viable cells): dropped below the level of uninduced cells by the conclusion of the time course
- fold induction at 5000 µM ([1]; Homo sapiens, K562, 72 h, read-out: fold induction of reporter gene activity (FIG. 6)): ~2
- induction of differentiation [2]: induce differentiation of neoplastic and non-neoplastic cells
- fold induction at 5000 µM (GATA-1 mRNA [3]; Homo sapiens, K562, 96 h, read-out: Fold Induction, GATA-1 RNA): 1
- Raw Value, GATA-1 RNA (GATA-1 mRNA [3]; K562 cells, 5 mM, 96 hours): 2.23 × 10^5
- Normalized Value, GATA-1 RNA (GATA-1 mRNA [3]; [5]): 5.8 × 10^4
- fold induction at 5000 µM (gamma globin mRNA; Homo sapiens, K562, 96 h, read-out: Fold Induction, gamma globin RNA): 1.3
- Raw Value, gamma globin RNA (gamma globin mRNA; K562 cells, 5 mM, 96 hours): 3.58 × 10^6
- Normalized Value, gamma globin RNA (gamma globin mRNA; [5]): 9.4 × 10^5
- decrease in GATA-1 RNA level (GATA-1 mRNA [4]): about 3 fold
